The record followed here is patent publication US8956622B2, “Peptidic antagonists of class III semaphorins/neuropilins complexes” (INSERM—Institut National de la Sante et de la Recherche …, priority 2005, dated 2015).

Where two headings read alike, the source gives them in different places.

The subject of assay [1] is cortical axons collapses triggered by Sema3A. Briefly: Cortical axons collapses triggered by Sema3A in neocortex explants. The format is cell-based, mouse. As to conditions: Sema3A 100 ng/ml, peptide 10^−8 to 10^−11 M, 2 h, read-out: IC50, inhibition of cortical axons collapses induced by Sema3A. The method, then:
The inhibitory axon growth property of Sema 3A is supposed to be linked to its induction capacity of growth cone collapses. To investigate the effect of the pTM-NRP1 peptide on the Sema 3A functional properties, the growth of cortical neurons was analyzed in the presence or not of Sema 3A and of pTM-NRP1 or pTM-NRP1^mut (NRP1 TM with a triple G→V mutation) peptides.
Laminine/Poly-L-Lysine substrates have been made by adding 980 μL of Gey's balanced salt solution (GBSS, SIGMA) to 10 μL laminine (1 mg/ml, SIGMA) and to 10 μL poly-L-Lysine (10 mg/ml, SIGMA). Sterile coverslips have been placed in a big dish and added with substrate (100 μL). Then, ‘sandwiches’ have been prepared by covering each coverslip with a second one. After an incubation for at least 30 min at 37° C. under 5% CO2 in air, ‘sandwiches’ have been opened and each coverslip has been rinsed with deionized water. Explants have been cultured on dried coverslips.
Neocortex fragments prepared from E15 mouse embryos (E1 determined as the first day of embryonic development by detection of vaginal plug) have been transferred on a tissue chopper disk. Tissue have been cut into 200×200 μm by rotating the disk by 90° after the first cut. Cortex cubes have been collected with a spatula and put into culture medium in a Petri dish. Two coverslips with substrate have been placed in a small Petri dish (50 mm diameter, FALCON). After adding 750 μl of culture medium, the coverslips should stay in the incubator for at least 10 minutes. Using a dissecting microscope, forty to fifty cortical explants have been collected in 20 μl culture medium and carefully placed onto the coverslips. After 15 min at room temperature, most explants have adhered to their substrate. 2250 μl of culture medium have been slowly added to each dish. Then, explants cultures have been kept at 37° C. under 5% CO2 in air.
A radial outgrowth could be seen after 18-24 h in culture, and individual fibres and growth cones could have therefore been analyzed. Products tested on growth cones have been directly added in culture medium for 2 h: • purified Sema3A (100 ng/ml) prepared from conditioned medium of HEK293 cells stably expressing Sema3A. The purification was performed by using the anti-Flag system, SIGMA) • pTM-NRP1 (10^−8, 10^−9, 10^−10 and 10^−11 M), • 10^−8M mpTM-NRP1, • 10^−8M pTM-ErbB2w (SEQ ID NO. 18).
After incubation, 4% formaldehyde has been directly added in culture medium (v/v) for 15min. Then the solution has been removed and replaced by 4% formaldehyde for 15 min.

Assay [2] has as its system COS-1 cells expressing NRP1 and Plexin-A1. Briefly: COS cellular collapses triggered by Sema3A. The format is cell-based. As to conditions: peptide 10^−9 M, 1 hour pre-incubation, Sema 3A 4 hours. On the procedure:
Nevertheless, the artificial expression of NRP1 and Plexin-A1 in COS cells allows Sema 3A to trigger cellular collapses. To investigate the effect of the pTM-NRP1 peptide on the Sema3A functional properties, the shape of COS cells expressing NRP1 and Plexin-A1 was analyzed in the presence or not of Sema 3A and of pTM-NRP1 or pTM-NRP1^mut peptide.
COS-1 cells have been transfected by 1 μg of pBK-CMV (STRATAGENE) plasmids containing NRP1 and plexin-A1 coding sequences (provided by Pr. PUSCHEL; MUNSTER Universitat, Germany) with LIPOFECTAMINE 2000 (IN VITROGEN) according to the manufacturer's instructions in 6-well plates. Stably COS-1 transfected cells have been selected with 0.7% geneticine. Stably transfected COS-1 cells have been cultured on 12-well plates with previously poly-L-lysine-coated glass coverslips. Cells have been then incubated 1 hour with pTM-NRP1 or pTM-NRP1^mut peptide (10^−9M) at 37° C. The culture medium has been then removed and replaced by conditioned medium of HEK cells stably transfected or not with a construction expressing Sema 3A (100 μl/ml D-MEM) for 4 hours at 37° C. Finally, cells have been fixed with 2% formaldehyde for 30 minutes followed by 15 minutes in formaldehyde 4%. For each condition tested, about 400 cells have been analyzed.

For a further assay, the system named is C6 glioma. Nature of the assay: C6 glioma cells pre-incubated with peptide and injected into the striatum, tumour development at 8 days. The format is in vivo, rats. The method, then: The rat C6 glioma cell line, which is a good model of human glioma (DAI and HOLLAND, Biochim. Biophys. Acta, vol. 1551, p: M19-27, 2001), has been used to investigate how the blockade of NRP1 by using our peptidic strategy (pTM-NRP1) may interfere with cell migration and dissemination.
C6 cells (ATCC CCL-107) were stained using PKH26 (Sigma). Cells were incubated with peptides (pTM-NRP1 10^−8M or mutated pTM-NRP1 10^−8M) prior to injections for at least 2 h on ice in culture medium (composed of MEM with 5000 u/ml penicillin, 5 mg/ml streptomycin, 200 mM L-glutamine and 10% fetal calf serum). Injections of 10^6 cells were performed using a stereotaxic frame according to the following coordinates: antero-posterior, +1.6 mm relative to Bregma; L, +2 mm; H, +5 mm relative to the cortical surface.
All injections were performed in the left striatum.
Following a survival period of 8 days, the animals (3 groups of 4 rats) were killed by a lethal intra-peritoneal injection of pentobarbital before trans-cardiac perfusion with a pre-rinse of 100 ml PBS followed by 500 ml of 2% formaldehyde. The brains were post-fixed during 2 hours at 4° C. and sagittal sections (70 μm) were prepared on a vibratome.
One group of sections were mounted in PBS-glycerol (v/v) for microscopic observation, and another one was treated for immunostaining of CD34. […]

For orientation: IC50 means the concentration that gives 50% inhibition. Take ILITIIAMSALGVLLGAVCGVVL [pTM-NRP1]: the figures for the IC50 in assay [1] (listed as peptide corresponding to the transmembrane domain of NRP1) and in assay [1] were under 0.01 nM and about 0.01 nM, respectively. Moreover, the “effect on cellular collapses of COS-1 cells triggered by Sema 3A” value in assay [2] is reported as “completely abolished”. Also, the tumour size result with C6 glioma (C6 cells treated with peptide 10^−8 M prior to injection in the left striatum, 8 days, n=4) is reported as “strong reduction”. In the assay on C6 glioma (C6 cells treated with peptide 10^−8 M prior to injection, brain sections at 8 days), the “immunoreactivity for CD34, a marker of neoangiogenesis” value is listed as “strong reduction”.
